Experiment [1] relates to A549 cells. As to the kind of experiment: Colony formation assay. The format is cell-based, human. The following applies: for Colony formation normalized on EV: EV + PBS = 100%; for Colony formation, average / Colony formation, groups 1-3 (replicates): number after + = μg Erlotinib; for Colony formation normalized on pc301: pc301PBS = 100%. As to the method: FIG. 8: Fus1 and Erlotinib combined treatment effect on colony formation of A549 cells. […] “EV” indicates empty vector; Fus1 indicates a vector containing Fus1; numerical values following “+” indicate μg of Erlotinib; PBS indicates Phosphate-Buffer Saline control.
(§1) To assess cooperative effects of tumor growth data between FUS-1 (FUST) and Erlotinib (Erlo) a Bayesian Bootstrapping analysis approach was used. The Pr(min(μF, μE)<μC|(data) was calculated i.e., the posterior probability that the minimum of the two posterior mean colony formation for FUS-1 alone, μF, or Erlotinib alone, μE, […] the mean posterior colony formation for the combination μC. This probability calculates the likelihood that average colony formation in the combination arm will be less than the minimum of the two single agent arms. Cooperative effects are shown if this posterior probability is large. Thus, the probability of cooperative effect ranges from 0.0 to 1.0 where 0 means no chance of a true cooperative effect given the data observed while 1 means 100% certainty of a cooperative effect given the data observed. The Statistical software S-PLUS 8.0 were used for all the analyses.

Experiment [2] has as its system H322 cells. As to the kind of experiment: Colony formation assay. The class given is cell-based, human. Further details: Colony formation, groups 1-3 (replicates) / Colony formation, average: unit not given here. The following applies: for Colony formation normalized on EV: EV + PBS = 100%; for Colony formation, average / Colony formation, groups 1-3 (replicates): number after + = μg Erlotinib; for Colony formation normalized on pc301: pc301PBS = 100%. As to the method: FIG. 7: Fus1 and Erlotinib combined treatment effect on colony formation of H322 cells. […] “EV” indicates empty vector; Fus1 indicates a vector containing Fus1; numerical values following “+” indicate μg of Erlotinib; PBS indicates Phosphate-Buffer Saline control. […]
as §1

Experiment [3] deals with H460 cells. As to the kind of experiment: Colony formation assay. The format is cell-based, human. The settings on record: for Colony formation normalized on EV: EV + PBS = 100%; for Colony formation, average / Colony formation, groups 1-3 (replicates): number after + = μg Erlotinib. As to the method: FIG. 9: Fus1 and Erlotinib combined treatment effect on colony formation of H460 cells. […] “EV” indicates empty vector; Fus1 indicates a vector containing Fus1; numerical values following “+” indicate μg of Erlotinib; PBS indicates Phosphate-Buffer Saline control.
as §1

In experiment [4] the test system is H1299 cells. As to the kind of experiment: Colony formation assay. The class given is cell-based, human. Set-up: Colony formation, groups 1-3 (replicates) / Colony formation, average: unit not given here. The following applies: for Colony formation normalized on EV: EV + PBS = 100%; for Colony formation, average / Colony formation, groups 1-3 (replicates): number after + = μg Erlotinib; for Colony formation normalized on pc301: pc301PBS = 100%. As to the method: FIG. 6: Fus1 and Erlotinib combined treatment effect on colony formation of H1299 cells. […] “EV” indicates empty vector; Fus1 indicates a vector containing Fus1; numerical values following “erlo” indicate μg of Erlotinib; PBS indicates Phosphate-Buffer Saline control. […]
as §1

For experiment [5], the system named is HCC366 and H322 cells. As to the kind of experiment: Effect of AMPK inhibitor on FUS1/MK2206-induced cell death. The format is cell-based, human. The following applies: AMPK inhibitor present. As to the method:
FIG. 23: The effect of AMPK inhibitor on FUS1/MK2206-induced cell death. Cell survival was assessed in HCC366 and H322 cells treated with FUS1 nanoparticles and various concentrations of MK2206 in the presence or absence of AMPK inhibitor Compound C. Graphs show relative cell survival (y-axis) at various concentrations of MK2206 (x-axis) with and without AMPK inhibitor as indicated.
(§2) To better determine the mechanism for synergistic FUS1/MK2206 effect, treated cells were subjected to an immunoblots to assess the phosphorylation status of cell signaling molecules. […] Thus, FUS1-increased sensitivity to MK2206 is associated with the down-regulation of AKT and mTOR phosphorylation and up-regulation of AMPK phosphorylation. In view of these studies a proposed FUS/MK2206 signaling pathway is provided as FIG. 25.

Experiment [6] has as its system phosphorylated AMPK, AKT, mTOR and S6K. As to the kind of experiment: Immunoblot of phosphorylated signaling proteins in FUS1/MK2206-treated cell lines. The class given is cell-based, human. The following applies: addition of MK2206; HCC366 or H322 cells. How it is done:
FIG. 21: Immunoblot of p-AKT, p-AMPK and p-mTOR in FUS1/MK2206-treated cell lines. Phosphorylation specific antibodies were used to assess expression of phosphorylated AMPK, AKT, mTOR and S6K in HCC366 or H322 cells. Cells were treated with empty vector (EV); FUS1 nanoparticles (FUS1); MK2206; empty vector+MK2206 (EV+MK); or FUS1 nanoparticles+MK2206 (FUS1+MK) prior to assessment for phosphorylated protein expression. Immunoblot of β-actin was used as a loading control.
as §2

The subject of experiment [7] is A549. As to the kind of experiment: IC50 of MK2206 alone or with FUS1-nanoparticles. The format is cell-based. The following applies: Homo sapiens. As to the method: (§3) FIG. 17: Single drug treatment of MK2206 on lung cancer cells. […] Cell lines that were further analyzed are indicated by arrows.
(§4) FIG. 18: FUS1/MK2206-induced cell death in lung cancer cell lines. Graphs show the relative survival rates for the indicated cancer cells (y-axis) when contacted with empty vector (EV) or FUS1 nanoparticles in the presence of increasing concentrations of MK2206 (x-axis).
(§5) Single drug treatment with AKT inhibitor MK2206 was also assessed in a wide range of lung cancer cell lines. Cell lines indicated by arrows (H322, A549, H2887 and […]) were subjected to further analysis. First, each of the cell lines was treated with FUS1 nanoparticles or empty vector at increasing concentrations of MK2206. […] The effect of the combined therapy was especially evident in H2887, H322 and HCC366 cells. Next, the ability of combined FUS1/MK2206 treatment to inhibit colony formation was studied in the cell lines. […] Thus, FUS1 treatment is able to sensitize cancer cells to the effects of kinase inhibitors such as the AKT inhibitor MK2206. This effect was quantified relative to each studied cell line below in Table 13.

In experiment [8] the test system is HCC366. As to the kind of experiment: IC50 of MK2206 alone or with FUS1-nanoparticles. The settings on record: Homo sapiens. The class given is cell-based. As to the method:
as §3, §4, §5

Experiment [9] deals with H2887. As to the kind of experiment: IC50 of MK2206 alone or with FUS1-nanoparticles. The format is cell-based. The settings on record: Homo sapiens, NCI-H2887. How it is done:
as §3, §4, §5

Experiment [10] deals with H322. As to the kind of experiment: IC50 of MK2206 alone or with FUS1-nanoparticles. The class given is cell-based. The settings on record: Homo sapiens, NCI-H322. As to the method: as §3, §4, §5

Molecules are shown by their SMILES. Several values for one entry are separate records, joined by “and”; a condition that tells them apart may be missing. Equal entries are not always repeated.

For `C#Cc1cccc(Nc2ncnc3cc(OCCOC)c(OCCOC)cc23)c1` [Erlotinib], the “Colony formation normalized on EV” value worked out at 93% in [1] (listed as EV + 1); 71% in [1] (listed as EV + 2.3); 78% in [2] (listed as EV + 1); 37% in experiment [2] (listed as EV + 2.3); 64% in [3] (listed as EV + 1); 40% in experiment [3] (listed as EV + 2.3). Besides, the “Colony formation normalized on EV” value in experiment [4] (listed as EV + 1) amounted to 97%; in experiment [4] (listed as EV + 2.3) it was 47%. Moreover, the “Colony formation, average” value in experiment [1] (listed as EV + 1) is 2652; in experiment [1] (listed as EV + 2.3), 2044; in [1] (listed as pc301 + 1), 3203; in experiment [1] (listed as pc301 + 2.3), 1693; in experiment [2] (listed as EV + 1), 38570; in experiment [2] (listed as EV + 2.3) it was 18091. For the same compound, the “Colony formation, average” value in experiment [2] (listed as pc301 + 1) is given as 39180; in experiment [2] (listed as pc301 + 2.3), 28211; in [3] (listed as EV + 1), 1360; in experiment [3] (listed as EV + 2.3), 859; in experiment [4] (listed as EV + 1), 16866; in [4] (listed as EV + 2.3), 8142. Moreover, the “Colony formation, average” value stood at 29960 in experiment [4] (listed as pc301 + 1) and 21288 in experiment [4] (listed as pc301 + 2.3). For the same compound, the “Colony formation, groups 1-3 (replicates)” value in experiment [1] (listed as EV + 1) is 3083 and 2538 and 2334; in [1] (listed as EV + 2.3), 2484 and 1910 and 1738; in [1] (listed as pc301 + 1), 3779 and 2436 and 3393; in experiment [1] (listed as pc301 + 2.3), 1625 and 1803 and 1651; in experiment [2] (listed as EV + 1), 43621 and 36971 and 35119; in [2] (listed as EV + 2.3), 20293 and 16469 and 17511. Moreover, the “Colony formation, groups 1-3 (replicates)” value is 44761 and 37701 and 35079 in experiment [2] (listed as pc301 + 1); 28610 and 28943 and 27080 in experiment [2] (listed as pc301 + 2.3); 1216 and 1393 and 1470 in [3] (listed as EV + 1); 750 and 968 and 858 in experiment [3] (listed as EV + 2.3); 18287.0 and 15301.0 and 17010.0 in experiment [4] (listed as EV + 1); 9216.0 and 8082.0 and 7128.0 in experiment [4] (listed as EV + 2.3). In addition, the “Colony formation, groups 1-3 (replicates)” value in experiment [4] (listed as pc301 + 1) is 31957.0 and 25107.0 and 32817.0; in experiment [4] (listed as pc301 + 2.3), 24425.0 and 18192.0 and 21246.0. For the same compound, the “Colony formation normalized on pc301” value was found to be 47% in experiment [1] (listed as EV + 1); 36% in experiment [1] (listed as EV + 2.3); 57% in experiment [1] (listed as pc301 + 1); 30% in [1] (listed as pc301 + 2.3); 65% in experiment [2] (listed as EV + 1); 30% in experiment [2] (listed as EV + 2.3). In addition, the “Colony formation normalized on pc301” value amounted to 66% in experiment [2] (listed as pc301 + 1); 47% in experiment [2] (listed as pc301 + 2.3); 40% in [4] (listed as EV + 1); 19% in experiment [4] (listed as EV + 2.3); 71% in [4] (listed as pc301 + 1); 50% in [4] (listed as pc301 + 2.3).

Consider `c1cc(-c2cnn3cc(-c4ccc(OCCN5CCCCC5)cc4)cnc23)ccn1` [Compound C], for which the “protection from FUS1/MK2206-mediated killing” value in experiment [5] is recorded as “partially protect cancer cells from FUS1/MK2206-mediated killing”.

As to `NC1(c2ccc(-c3nc4ccn5c(=O)[nH]nc5c4cc3-c3ccccc3)cc2)CCC1` [MK2206], the “phosphorylated AKT levels” value in [6] is recorded as “significantly reduced phosphorylated AKT levels”. In addition, the IC50 came to 2.86 µM in experiment [7], 18.4 µM in experiment [8], 16.5 µM in [9] and 20.4 µM in experiment [10].

The record behind these values is patent publication US9675663B2, “TUSC2 therapies” (Board of Regents, The University of Texas System, priority 2011, dated 2017).
